Measurements as given in patent US11970493B2, “Autotaxin inhibitor compounds” (ILDONG PHARMACEUTICAL CO., LTD., priority 2020, dated 2024).
Structures can show the parent of a compound that is named as a salt.

Target: hATX/ENPP2 (Homo sapiens, UniProt Q13822)
Experiment: hATX/ENPP2 biochemical assay using 16:0-LPC as substrate (Amplex Red/choline oxidase/HRP fluorescence)
Details: hENPP2 2.5 nM, LPC (16:0) substrate
Protocol: The enzyme is diluted in 50 mM Tris-HCl pH 8.0, 140 mM NaCl, 5 mM CaCl2, 0.01% Triton X-100 in a total volume of 5 μL. The aqueous solution of enzyme is added to the wells and incubated with different concentrations of the compounds at room temperature for 15 min. The reaction is started by the addition of 5 μL of 80 μM LPC (16:0) and 10 μL of the detection mixture containing 200 μM Amplex Red, 10 U/mL choline oxidase and 4 U/mL HRP. Fluorescence at 590 nm was measured kinetically with excitation at 530 nm. The slope of the curve (from 60 to 70 min of the reaction time) was used to calculate the compounds' IC50 values.

SMILES | IC50 [nM]
CCc1nc2ccc(-c3cnc(N4CC(C(=O)NC5CCNCC5)C4)nc3)cn2c1N(C)c1nc(-c2ccc(F)cc2)c(C#N)s1 [71 (hydrochloride salt), 1-(5-(3-((5-cyano-4-(4-fluorophenyl)thiazol-2-yl)(methyl)amino)-2-ethylimidazo[1,2-a]pyridin-6-yl)pyrimidin-2-yl)-N-(piperidin-4-yl) azetidine-3-carboxamide hydrochloride] | 20 to 200
CCc1nc2ccc(-c3cnc(N4CC(NC(=O)C5(O)CC5)C4)nc3)cn2c1N(C)c1nc(-c2ccc(F)cc2)c(C#N)s1 [Compound 31, N-(1-(5-(3-((5-cyano-4-(4-fluorophenyl)thiazol-2-yl)(methyl)amino)-2-ethylimidazo[1,2-a]pyridin-6-yl)pyrimidin-2-yl)azetidin-3-yl)-1-hydroxycyclopropane-1-carboxamide] | 20 to 200
CCc1nc2ccc(-c3cnc(N4CC(C(=O)NC5(C#N)CC5)C4)nc3)cn2c1N(C)c1nc(-c2ccc(F)cc2)c(C#N)s1 [Compound 32, 1-(5-(3-((5-cyano-4-(4-fluorophenyl)thiazol-2-yl)(methyl)amino)-2-ethylimidazo[1,2-a]pyridin-6-yl)pyrimidin-2-yl)-N-(1-cyanocyclopropyl)azetidine-3-carboxamide] | ≤ 20
CCc1nc2ccc(-c3cnc(CC(=O)NC4CNC4)nc3)cn2c1N(C)c1nc(-c2ccc(F)cc2)c(C#N)s1 [Compound 63, N-(azetidin-3-yl)-2-(5-(3-((5-cyano-4-(4-fluorophenyl)thiazol-2-yl)(methyl)amino)-2-ethylimidazo[1,2-a]pyridin-6-yl)pyrimidin-2-yl)acetamide] | > 200
CCc1nc2ccc(-c3cnc(N4CCC(NC5CC5)CC4)nc3)cn2c1N(C)c1nc(-c2ccc(F)cc2)c(C#N)s1 [Compound 107, 2-((6-(2-(4-(cyclopropylamino)piperidin-1-yl)pyrimidin-5-yl)-2-ethylimidazo[1,2-a]pyridin-3-yl)(methyl)amino)-4-(4-fluorophenyl)thiazole-5-carbonitrile] | 20 to 200
CCc1nc2ccc(-c3cnc(C(=O)N4CCC(O)CC4)nc3)cn2c1N(C)c1nc(-c2ccc(F)cc2)c(C#N)s1 [Compound 15, 2-((2-ethyl-6-(2-(4-hydroxypiperidine-1-carbonyl)pyrimidin-5-yl)imidazo[1,2-a]pyridin-3-yl)(methyl)amino)-4-(4-fluorophenyl)thiazole-5-carbonitrile] | 20 to 200
CCc1nc2ccc(-c3cnc(NCC4CN(C(=O)N5CC(O)C5)C4)nc3)cn2c1N(C)c1nc(-c2ccc(F)cc2)c(C#N)s1 [Compound 39, 2-((2-ethyl-6-(2-(((1-(3-hydroxyazetidine-1-carbonyl)azetidin-3-yl)methyl)amino)pyrimidin-5-yl)imidazo[1,2-a]pyridin-3-yl)(methyl)amino)-4-(4-fluorophenyl)thiazole-5-carbonitrile] | 20 to 200
CCc1nc2ccc(-c3cnc(N4CCN(CC(=O)N5CC[C@@H](O)C5)CC4)nc3)cn2c1N(C)c1nc(-c2ccc(F)cc2)c(C#N)s1 [Compound 45, (R)-2-((2-ethyl-6-(2-(4-(2-(3-hydroxypyrrolidin-1-yl)-2-oxoethyl)piperazin-1-yl)pyrimidin-5-yl)imidazo[1,2-a]pyridin-3-yl)(methyl)amino)-4-(4-fluorophenyl)thiazole-5-carbonitrile] | ≤ 20
CCc1nc2ccc(-c3cnc(C(=O)NC4(C#N)CC4)nc3)cn2c1N(C)c1nc(-c2ccc(F)cc2)c(C#N)s1 [Compound 16, 5-(3-((5-cyano-4-(4-fluorophenyl)thiazol-2-yl)(methyl)amino)-2-ethylimidazo[1,2-a]pyridin-6-yl)-N-(1-cyanocyclopropyl)pyrimidine-2-carboxamide] | 20 to 200
CCc1nc2ccc(-c3cnc(N4CCN(C(=O)[C@@H]5C[C@@H](O)CN5)CC4)nc3)cn2c1N(C)c1nc(-c2ccc(F)cc2)c(C#N)s1 [Compound 5, 2-((2-ethyl-6-(2-(4-((2S,4R)-4-hydroxypyrrolidine-2-carbonyl)piperazin-1-yl)pyrimidin-5-yl)imidazo[1,2-a]pyridin-3-yl)(methyl)amino)-4-(4-fluorophenyl)thiazole-5-carbonitrile] | ≤ 20
CCc1nc2ccc(-c3cnc(NCC4CN(C(=O)C5CNC5)C4)nc3)cn2c1N(C)c1nc(-c2ccc(F)cc2)c(C#N)s1 [Compound 40, 2-((6-(2-(((1-(azetidine-3-carbonyl)azetidin-3-yl)methyl)amino)pyrimidin-5-yl)-2-ethylimidazo[1,2-a]pyridin-3-yl)(methyl)amino)-4-(4-fluorophenyl)thiazole-5-carbonitrile] | > 200
CCc1nc2ccc(-c3cnc(NCC4CN(C(=O)C5(O)CC5)C4)nc3)cn2c1N(C)c1nc(-c2ccc(F)cc2)c(C#N)s1 [Compound 41, 2-((2-ethyl-6-(2-(((1-(1-hydroxycyclopropane-1-carbonyl)azetidin-3-yl)methyl)amino)pyrimidin-5-yl)imidazo[1,2-a]pyridin-3-yl)(methyl)amino)-4-(4-fluorophenyl)thiazole-5-carbonitrile] | 20 to 200
CCc1nc2ccc(-c3cnc(N4CCC(NC(=O)C5CNC5)CC4)nc3)cn2c1N(C)c1nc(-c2ccc(F)cc2)c(C#N)s1 [Compound 83 hydrochloride, N-(1-(5-(3-((5-cyano-4-(4-fluorophenyl)thiazol-2-yl)(methyl)amino)-2-ethylimidazo[1,2-a]pyridin-6-yl)pyrimidin-2-yl)piperidin-4-yl)azetidine-3-carboxamide hydrochloride] | ≤ 20
CCc1nc2ccc(-c3cnc(N4CCN(C(=O)C5CN(C6CC6)C5)CC4)nc3)cn2c1N(C)c1nc(-c2ccc(F)cc2)c(C#N)s1 [Compound 111, 2-((6-(2-(4-(1-cyclopropylazetidine-3-carbonyl)piperazin-1-yl)pyrimidin-5-yl)-2-ethylimidazo[1,2-a]pyridin-3-yl)(methyl)amino)-4-(4-fluorophenyl)thiazole-5-carbonitrile] | 20 to 200
CCc1nc2ccc(-c3cnc(N4CC(C(=O)NC5(CO)CC5)C4)nc3)cn2c1N(C)c1nc(-c2ccc(F)cc2)c(C#N)s1 [Compound 33, 1-(5-(3-((5-cyano-4-(4-fluorophenyl)thiazol-2-yl)(methyl)amino)-2-ethylimidazo[1,2-a]pyridin-6-yl)pyrimidin-2-yl)-N-(1-(hydroxylmethyl)cyclopropyl)azetidine-3-carboxamide] | ≤ 20
CCc1nc2ccc(-c3cnc(N4CCC(NC5CNC5)CC4)nc3)cn2c1N(C)c1nc(-c2ccc(F)cc2)c(C#N)s1 [Compound 68 formate, 2-((6-(2-(4-(azetidin-3-ylamino)piperidin-1-yl)pyrimidin-5-yl)-2-ethylimidazo[1,2-a]pyridin-3-yl)(methyl)amino)-4-(4-fluorophenyl)thiazole-5-carbonitrile formate] | ≤ 20
CCc1nc2ccc(-c3cnc(CC(=O)NC4(C#N)CC4)nc3)cn2c1N(C)c1nc(-c2ccc(F)cc2)c(C#N)s1 [Compound 64, 2-(5-(3-((5-cyano-4-(4-fluorophenyl)thiazol-2-yl)(methyl)amino)-2-ethylimidazo[1,2-a]pyridin-6-yl)pyrimidin-2-yl)-N-(1-cyanocyclopropyl)acetamide] | 20 to 200
CCc1nc2ccc(-c3cnc(N4CCN(C(=O)NC5CN(C)C5)CC4)nc3)cn2c1N(C)c1nc(-c2ccc(F)cc2)c(C#N)s1 [Compound 82 hydrochloride, 4-(5-(3-((5-cyano-4-(4-fluorophenyl)thiazol-2-yl)(methyl)amino)-2-ethylimidazo[1,2-a]pyridin-6-yl)pyrimidin-2-yl)-N-(1-methylazetidin-3-yl)piperazine-1-carboxamide hydrochloride] | ≤ 20
CCc1nc2ccc(-c3cnc(N4CCN(C(=O)NC5CCNCC5)CC4)nc3)cn2c1N(C)c1nc(-c2ccc(F)cc2)c(C#N)s1 [Compound 67, 4-(5-(3-((5-cyano-4-(4-fluorophenyl)thiazol-2-yl)(methyl)amino)-2-ethylimidazo[1,2-a]pyridin-6-yl)pyrimidin-2-yl)-N-(piperidin-4-yl)piperazine-1-carboxamide] | 20 to 200
CCc1nc2ccc(-c3cnc(CC(=O)N4CC(NC5CNC5)C4)nc3)cn2c1N(C)c1nc(-c2ccc(F)cc2)c(C#N)s1 [Compound 53, 2-((6-(2-(2-(3-(azetidin-3-ylamino)azetidin-1-yl)-2-oxoethyl)pyrimidin-5-yl)-2-ethylimidazo[1,2-a]pyridin-3-yl)(methyl)amino)-4-(4-fluorophenyl)thiazole-5-carbonitrile] | 20 to 200
CCc1nc2ccc(-c3cnc(N4CCC(C(=O)NC5CNC5)CC4)nc3)cn2c1N(C)c1nc(-c2ccc(F)cc2)c(C#N)s1 [Compound 72 hydrochloride, N-(azetidin-3-yl)-1-(5-(3-((5-cyano-4-(4-fluorophenyl)thiazol-2-yl)(methyl)amino)-2-ethylimidazo[1,2-a]pyridin-6-yl)pyrimidin-2-yl)piperidine-4-carboxamide hydrochloride] | ≤ 20
CCc1nc2ccc(-c3cnc(N4CC(NC(=O)[C@@H]5C[C@@H](O)CN5)C4)nc3)cn2c1N(C)c1nc(-c2ccc(F)cc2)c(C#N)s1 [Compound 26, (2S,4R)—N-(1-(5-(3-((5-cyano-4-(4-fluorophenyl)thiazol-2-yl)(methyl)amino)-2-ethylimidazo[1,2-a]pyridin-6-yl)pyrimidin-2-yl)azetidin-3-yl)-4-hydroxypyrrolidine-2-carboxamide] | 20 to 200
CCc1nc2ccc(-c3cnc(N4CCN(C(=O)C5CNC5)CC4)nc3)cn2c1N(C)c1nc(-c2ccc(F)cc2)c(C#N)s1 [Compound 9, 2-((6-(2-(4-(azetidine-3-carbonyl)piperazin-1-yl)pyrimidin-5-yl)-2-ethylimidazo[1,2-a]pyridin-3-yl)(methyl)amino)-4-(4-fluorophenyl)thiazole-5-carbonitrile] | ≤ 20
